Data taken from ChEMBL document CHEMBL1135818, “A new, potent urotensin II receptor peptide agonist containing a Pen residue at the disulfide bridge” (J Med Chem, 2002).
Bridge positions count the residues as written; N and C are the ends. Square brackets hold non-standard residues; d marks the D form. Peptide text beside a SMILES is read from it. dPen = CC(C)(S)[C@@H](N)C(=O)O; Pen = CC(C)(S)[C@H](N)C(=O)O

Target: T1, Urotensin-2 receptor (Homo sapiens, UniProt Q9UKP6)
T1 sequence (Q9UKP6 whole entry): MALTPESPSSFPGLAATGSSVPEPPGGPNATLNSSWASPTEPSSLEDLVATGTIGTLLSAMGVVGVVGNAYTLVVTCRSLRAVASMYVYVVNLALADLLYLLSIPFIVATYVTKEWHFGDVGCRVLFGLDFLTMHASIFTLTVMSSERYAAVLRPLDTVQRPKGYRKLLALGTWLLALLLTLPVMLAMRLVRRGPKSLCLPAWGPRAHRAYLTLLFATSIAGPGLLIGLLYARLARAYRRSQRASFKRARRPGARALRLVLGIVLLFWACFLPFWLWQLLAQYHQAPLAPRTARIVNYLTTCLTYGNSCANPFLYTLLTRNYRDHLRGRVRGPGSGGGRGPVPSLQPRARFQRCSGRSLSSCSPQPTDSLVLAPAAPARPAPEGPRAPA
Experiment: Ability to displace radioligand [125I]Tyr-hU-II from human recombinant Urotensin 2 receptor in CHO-K1 cells
Format: cell-based
Settings: not given

Log Ki	SMILES
-7.9	CC(C)[C@H](NC(=O)[C@H]1NC(=O)[C@H](Cc2ccc(O)cc2)NC(=O)[C@H](CCCCN)NC(=O)[C@H](Cc2c[nH]c3ccccc23)NC(=O)[C@H](Cc2ccccc2)NC(=O)[C@@H](NC(=O)[C@@H](N)CC(=O)O)CSSC1(C)C)C(=O)O
-8.9	CC(C)[C@H](NC(=O)[C@H]1NC(=O)[C@H](Cc2ccc(O)cc2)NC(=O)[C@H](CCCCN)NC(=O)[C@H](Cc2c[nH]c3ccccc23)NC(=O)[C@H](Cc2ccccc2)NC(=O)[C@@H](NC(=O)[C@@H](N)CC(=O)O)C(C)(C)SSC1(C)C)C(=O)O (H-D[Pen]FWKY[Pen]V-OH; disulfide 2-7)

Target: T2, Urotensin-2 receptor (Homo sapiens) (UniProt Q9UKP6)
T2 sequence (whole entry): T1 sequence (Q9UKP6 whole entry)
Settings: CHO-K1

SMILES	pD2
CC(C)[C@H](NC(=O)[C@@H]1CSSC[C@@H](NC(=O)[C@@H](N)CC(=O)O)C(=O)N[C@@H](Cc2ccccc2)C(=O)N[C@@H](Cc2c[nH]c3ccccc23)C(=O)N[C@@H](CCCCN)C(=O)N[C@@H](Cc2ccc(O)cc2)C(=O)N1)C(=O)O (H-D[dC]FWKYCV-OH; disulfide 2-7)	8.6
CC(C)[C@H](NC(=O)[C@@H]1CSSC[C@@H](NC(=O)[C@H](CC(=O)O)NC(=O)[C@H]2CCCN2C(=O)[C@@H](NC(=O)[C@@H](N)CCC(=O)O)[C@@H](C)O)C(=O)N[C@H](Cc2ccccc2)C(=O)N[C@@H](Cc2c[nH]c3ccccc23)C(=O)N[C@H](CCCCN)C(=O)N[C@@H](Cc2ccc(O)cc2)C(=O)N1)C(=O)O	8.3

Now from value to compound:

pD2	SMILES
9.6	CC(C)[C@H](NC(=O)[C@@H]1CSSC(C)(C)[C@@H](NC(=O)[C@@H](N)CC(=O)O)C(=O)N[C@@H](Cc2ccccc2)C(=O)N[C@@H](Cc2c[nH]c3ccccc23)C(=O)N[C@@H](CCCCN)C(=O)N[C@@H](Cc2ccc(O)cc2)C(=O)N1)C(=O)O (H-D[dPen]FWKYCV-OH; disulfide 2-7)
6.7	CC(C)[C@H](NC(=O)[C@@H]1NC(=O)[C@H](Cc2ccc(O)cc2)NC(=O)[C@H](CCCCN)NC(=O)[C@H](Cc2c[nH]c3ccccc23)NC(=O)[C@H](Cc2ccccc2)NC(=O)[C@H](NC(=O)[C@@H](N)CC(=O)O)CSSC1(C)C)C(=O)O
8.2	CC(C)[C@H](NC(=O)[C@@H]1NC(=O)[C@H](Cc2ccc(O)cc2)NC(=O)[C@H](CCCCN)NC(=O)[C@H](Cc2c[nH]c3ccccc23)NC(=O)[C@H](Cc2ccccc2)NC(=O)[C@H](NC(=O)[C@@H](N)CC(=O)O)C(C)(C)SSC1(C)C)C(=O)O (H-D[dPen]FWKY[dPen]V-OH; disulfide 2-7)
